Data on six compounds can be found in patent US7342015B2, “Indole derivatives” (H. Lundbeck A/S, priority 2001, dated 2008).

Assay [1] concerns the target T1, cloned 5-HT1A receptors (Homo sapiens, UniProt P08908).
T1 construct: expressed in transfected cells; host or cells: HeLa cells (HA7)
T1 sequence (P08908 1-422): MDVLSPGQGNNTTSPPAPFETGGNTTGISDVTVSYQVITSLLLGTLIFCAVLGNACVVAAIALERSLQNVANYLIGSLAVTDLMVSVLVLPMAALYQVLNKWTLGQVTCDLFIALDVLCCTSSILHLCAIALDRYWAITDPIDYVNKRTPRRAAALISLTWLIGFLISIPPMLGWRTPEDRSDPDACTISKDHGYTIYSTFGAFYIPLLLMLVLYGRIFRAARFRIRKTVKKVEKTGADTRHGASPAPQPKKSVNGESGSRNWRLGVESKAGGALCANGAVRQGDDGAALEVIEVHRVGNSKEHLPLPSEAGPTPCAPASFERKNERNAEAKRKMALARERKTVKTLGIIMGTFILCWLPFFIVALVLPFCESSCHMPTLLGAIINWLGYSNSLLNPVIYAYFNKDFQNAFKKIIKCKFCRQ
In words: Inhibition of 3H-5-CT binding to human 5-HT1A receptors. To be noted: cloned human 5-HT1A receptors in transfected HeLa cells (HA7), 15 minutes at 37° C., pH 7.7. Here is the method:
The affinity of the compounds of the invention to 5-HT1A receptors was determined by measuring the inhibition of binding of a radioactive ligand at 5-HT1A receptors as described in the following test:
Inhibition of ^3H-5-CT Binding to Human 5-HT1A Receptors.
By this method, the inhibition by drugs of the binding of the 5-HT1A agonist ^3H-5-carboxamido tryptamine (3H-5-CT) to cloned human 5-HT1A receptors stably expressed in transfected HeLa cells (HA7) (Fargin, A. et al. J. Biol. Chem. 1989, 264, 14848) is determined in vitro. The assay was performed as a modification of the method described by Harrington, M. A. et al. J. Pharmacol. Exp. Ther. 1994, 268, 1098. Human 5-HT1A receptors (40 μg of cell homogenate) were incubated for 15 minutes at 37° C. in 50 mM Tris buffer at pH 7.7 in the presence of ^3H-5-CT. Non-specific binding was determined by including 10 μM of metergoline. The reaction was terminated by rapid filtration through Unifilter GF/B filters on a Tomtec Cell Harvester. Filters were counted in a Packard Top Counter.

Assay [2] has as its target T2, re-uptake of serotonin (3H-5-HT uptake into whole rat brain synaptosomes) (Rattus norvegicus, UniProt P31652).
T2 construct: whole rat brain synaptosomes; from tissue; host or cells: whole rat brain synaptosomes
In words: Inhibition of 3H-5-HT uptake into rat brain synaptosomes. To be noted: in vitro. It is filed as biochemical. How it is done:
The compounds of the invention have also been tested for their effect on re-uptake of serotonin in the following test:
Inhibition of ^3H-5-HT Uptake Into Rat Brain Synaptosomes.
Using this method, the ability of drugs to inhibit the accumulation of ^3H-5-HT into whole rat brain synaptosomes is determined in vitro. The assay was performed as described by Hyttel, J. Psychopharmacology 1978, 60, 13.

In assay [3] the target is T1, cloned 5-HT1A receptors. The experiment in a line: 5-HT1A antagonistic activity: antagonism of 5-HT induced inhibition of forskolin induced cAMP accumulation in transfected HeLa cells (HA7). The class given is cell-based. As to conditions: cloned 5-HT1A receptors in transfected HeLa cells (HA7). Here is the method:
The 5-HT1A antagonistic activity of some of the compounds of the invention has been estimated in vitro at cloned 5-HT1A receptors, stably expressed in transfected HeLa cells (HA7). In this test, 5-HT1A antagonistic activity is estimated by measuring the ability of the compounds to antagonize the 5-HT induced inhibition of forskolin induced cAMP accumulation. The assay was performed as a modification of the method described by Pauwels, P. J. et al. Biochem. Pharmacol. 1993, 45, 375.
Background: cAMP levels reflect the balance of adenylyl cyclase and phosphodiesterase activity.

SMILES strings stand for the structures. Bounds are passed on as bounds.

For orientation: IC50 means the concentration at which inhibition is half-maximal. High values mean weaker potency, low ones greater potency.

T2 sequence (P31652 whole entry): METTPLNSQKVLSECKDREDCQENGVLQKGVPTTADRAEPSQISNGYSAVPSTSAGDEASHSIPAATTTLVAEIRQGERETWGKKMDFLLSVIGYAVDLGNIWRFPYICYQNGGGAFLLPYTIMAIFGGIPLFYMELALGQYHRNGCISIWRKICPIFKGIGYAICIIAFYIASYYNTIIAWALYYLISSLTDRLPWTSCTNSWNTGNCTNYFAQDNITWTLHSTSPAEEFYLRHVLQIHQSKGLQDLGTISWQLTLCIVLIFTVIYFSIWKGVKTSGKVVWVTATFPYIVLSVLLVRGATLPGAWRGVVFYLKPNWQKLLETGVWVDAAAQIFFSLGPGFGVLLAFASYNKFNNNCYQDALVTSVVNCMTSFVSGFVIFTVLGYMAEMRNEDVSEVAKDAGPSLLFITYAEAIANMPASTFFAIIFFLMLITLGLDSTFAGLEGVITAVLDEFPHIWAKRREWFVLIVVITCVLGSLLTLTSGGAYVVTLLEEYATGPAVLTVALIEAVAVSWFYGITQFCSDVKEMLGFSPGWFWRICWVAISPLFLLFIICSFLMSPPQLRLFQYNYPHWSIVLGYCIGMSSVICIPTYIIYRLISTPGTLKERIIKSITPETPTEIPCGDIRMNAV

As to `Cc1ccc(C#N)c(SCCN2CCN(c3cccc4[nH]ccc34)CC2)n1` [Compound 1d, 2-{2-[4-(1H-Indol-4-yl)piperazin-1-yl]ethylsulfanyl}-6-methylnicotinonitrile], the IC50 in assay [1] is less than 50 nM; in assay [2] it was less than 20 nM; in assay [3] it was less than 7000 nM.
For the compound `Cc1cc(C)nc(SCCN2CCN(c3cccc4[nH]ccc34)CC2)n1` [Compound 2o, 4,6-Dimethyl-2-{2-[4-(1H-indol-4-yl)piperazin-1-yl]ethylsulfanyl}pyrimidine], the half-maximal inhibitory concentration (IC50) in assay [1] was less than 50 nM; in assay [2], less than 20 nM.
Turning to `N#Cc1cccnc1SCCN1CCN(c2cccc3[nH]ccc23)CC1` [Compound 2b, 2-{2-[4-(1H-Indol-4-yl)piperazin-1-yl]ethylsulfanyl}nicotinonitrile], the 50% inhibitory concentration (IC50) in assay [1] is less than 50 nM; in assay [2], less than 20 nM; in assay [3], less than 7000 nM.
The corresponding values for `N#Cc1c(C(F)(F)F)cc(C2CC2)nc1SCCN1CCN(c2cccc3[nH]ccc23)CC1` [Compound 2e, 2-{2-[4-(1H-Indol-4-yl)piperazin-1-yl]ethylsulfanyl}-4-trifluoromethyl-6-cyclopropylnicotinonitrile] are less than 50 nM, less than 20 nM and less than 7000 nM.
Take `Cc1cc(C)c(C#N)c(SCCCN2CCN(c3cccc4[nH]ccc34)CC2)n1` [Compound 1l, 2-{3-[4-(1H-Indol-4-yl)piperazin-1-yl]propylsulfanyl}-4,6-dimethylnicotinonitrile]: the concentration for half-maximal inhibition (IC50) was less than 20 nM in assay [2] and less than 7000 nM in assay [3].
On the same counts, the results for `Cc1cc(C)c(C#N)c(SCCN2CCN(c3cccc4[nH]ccc34)CC2)n1` [Compound 1a, 2-{2-[4-(1H-Indol-4-yl)piperazin-1-yl]ethylsulfanyl}-4,6-dimethylnicotinonitrile] are less than 20 nM and less than 7000 nM.
